The text below walks through data of patent US10906890B2, “Triazole phenyl compounds as agonists of the APJ receptor” (AMGEN INC., priority 2016, dated 2021).

The assay has as its target human APJ receptor (Homo sapiens (Human), UniProt P35414). In words: [35S]GTPγS binding assay on membranes from CHO cells stably expressing human APJ receptor. The class given is biochemical. As to conditions: means of several independent experiments, read-out: Activity hAPJ SPA EC50 IP. The method, then: The human APJ receptor was cloned by polymerase chain reaction and the gene encoding the receptor was subcloned in pFLAG-CMV™-3 expression vector (Sigma, Saint Louis, Mo. USA) in-house at Amgen. A GTPγS binding assay was performed on membranes prepared from CHO cells stably expressing human APJ receptor. The optimum experimental conditions for the concentrations of GDP, MgCl2, and NaCl in the assay buffer were initially determined. […] Incubation was at RT for 90 min and the microplate was read using a ViewLux™ ultra HTS Microplate Imager (PerkinElmer, Inc.). All the results presented are means of several independent experiments and analyzed by non-linear regression methods using the commercially available program Prism (GraphPad, San Diego, Calif.) providing the EC50 values detailed in Table 28.

Molecules are shown by their SMILES.

Chain of human APJ receptor (P35414 whole entry): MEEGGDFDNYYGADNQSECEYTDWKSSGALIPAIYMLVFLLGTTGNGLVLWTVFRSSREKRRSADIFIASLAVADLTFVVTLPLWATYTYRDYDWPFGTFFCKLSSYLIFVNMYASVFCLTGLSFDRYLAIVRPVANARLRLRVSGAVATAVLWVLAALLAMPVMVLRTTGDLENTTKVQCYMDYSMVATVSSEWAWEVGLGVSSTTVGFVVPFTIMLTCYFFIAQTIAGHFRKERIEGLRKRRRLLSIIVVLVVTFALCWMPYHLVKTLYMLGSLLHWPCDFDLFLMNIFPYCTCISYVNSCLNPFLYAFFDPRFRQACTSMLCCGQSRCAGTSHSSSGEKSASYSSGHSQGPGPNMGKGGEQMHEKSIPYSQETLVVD

As usually defined, the EC50 is the midpoint of the concentration-response curve. For `CO[C@H](c1ncc(Cl)cn1)[C@H](C)S(=O)(=O)Nc1nnc(-c2cccc3nn(C)cc23)n1C1CC1` [Example 115.0], the EC50 came out at 11 nM.
The result for `Cc1cnc([C@@H](C)[C@H](C)S(=O)(=O)Nc2nnc(-c3cccc4nn(C)cc34)n2C2CCOCC2)nc1` [Example 120.0] reads 590 nM; that for `COc1cccc(OC)c1-n1c(NS(=O)(=O)[C@@H](C)[C@H](OC)c2ncc(C)cn2)nnc1-c1ccc(C)cc1` [Example 78.0, (1R,2S)-N-(4-(2,6-dimethoxyphenyl)-5-(4-methylphenyl)-4H-1,2,4-triazol-3-yl)-1-methoxy-1-(5-methyl-2-pyrimidinyl)-2-propanesulfonamide], 2.4 nM; that for `COCC1(n2c(NS(=O)(=O)[C@@H](C)[C@H](OC)c3ncc(Cl)cn3)nnc2-c2cccc3nn(C)cc23)CC1` [Example 114.0], 53 nM.
For `CO[C@H](c1ncc(Cl)cn1)[C@H](C)S(=O)(=O)Nc1nnc(-c2cccc(S(C)(=O)=O)c2)n1C1CC1` [Example 121.0, (1R,2S)-1-(5-Chloropyrimidin-2-yl)-N-(4-cyclopropyl-5-(3-(methylsulfonyl)phenyl)-4H-1,2,4-triazol-3-yl)-1-methoxypropane-2-sulfonamide] the value was 590 nM; for `COc1ccnc(OC)c1-n1c(NS(=O)(=O)[C@@H](C)[C@H](OC)c2ncc(C)cn2)nnc1-c1ccccc1` (single isomer, unassigned) [Example 24.0, (1R,2S,P)-N-(4-(2,4-dimethoxy-3-pyridinyl)-5-phenyl-4H-1,2,4-triazol-3-yl)-1-methoxy-1-(5-methyl-2-pyrimidinyl)-2-propanesulfonamide or (1R,2S,M)-N-(4-(2,4-dimethoxy-3-pyridinyl)-5-phenyl-4H-1,2,4-triazol-3-yl)-1-methoxy-1-(5-methyl-2-pyrimidinyl)-2-propanesulfonamide], 0.27 nM.
For `COCC(COC)n1c(NS(=O)(=O)[C@@H](C)[C@H](OC)c2ncc(Cl)cn2)nnc1-c1ccccc1` [Example 96.0, (1R,2S)-1-(5-Chloro-2-pyrimidinyl)-N-(4-(1,3-dimethoxy-2-propanyl)-5-phenyl-4H-1,2,4-triazol-3-yl)-1-methoxy-2-propanesulfonamide] the value was 16 nM; for `COc1cccc(OC)c1-n1c(NS(=O)(=O)[C@@H](C)[C@H](OC)c2ncc(C)cn2)nnc1-c1cccc2cnccc12` [Example 95.0], 340 nM.
Turning to `COc1cccc(OC)c1-n1c(NS(=O)(=O)[C@H]2CCCN(c3ncc(F)cn3)C2)nnc1-c1ccccc1` (single isomer, unassigned) [Example 22.0, (3S)—N-(4-(2,6-dimethoxyphenyl)-5-phenyl-4H-1,2,4-triazol-3-yl)-1-(5-fluoro-2-pyrimidinyl)-3-piperidinesulfonamide or (3R)—N-(4-(2,6-dimethoxyphenyl)-5-phenyl-4H-1,2,4-triazol-3-yl)-1-(5-fluoro-2-pyrimidinyl)-3-piperidinesulfonamide], the EC50 is 170 nM.
Consider `COc1cccc(OC)c1-n1c(NS(=O)(=O)[C@H]2C[C@@H](OC(C)C)CN(c3ncc(F)cn3)C2)nnc1-c1ccccc1` (single isomer, unassigned) [Example 58.0, (3R,5S)-N-(4-(2,6-dimethoxyphenyl)-5-phenyl-4H-1,2,4-triazol-3-yl)-1-(5-fluoro-2-pyrimidinyl)-5-(1-methylethoxy)-3-piperidinesulfonamide or (3S,5R)-N-(4-(2,6-dimethoxyphenyl)-5-phenyl-4H-1,2,4-triazol-3-yl)-1-(5-fluoro-2-pyrimidinyl)-5-(1-methylethoxy)-3-piperidinesulfonamide], for which the EC50 came out at 0.94 nM.
Take `COc1ccnc(OC)c1-n1c(NS(=O)(=O)[C@@H](C)[C@H](OC)c2ncc(C)cn2)nnc1-c1ccccc1` [Example 36.0, (1R,2S,P)-N-(4-(2,4-dimethoxy-3-pyridinyl)-5-phenyl-4H-1,2,4-triazol-3-yl)-1-methoxy-1-(5-methyl-2-pyrimidinyl)-2-propanesulfonamide and (1R,2S,S)-N-(4-(2,4-dimethoxy-3-pyridinyl)-5-phenyl-4H-1,2,4-triazol-3-yl)-1-methoxy-1-(5-methyl-2-pyrimidinyl)-2-propanesulfonamide]: the EC50 amounted to 1.9 nM.
The result for `COc1cccc(OC)c1-n1c(NS(=O)(=O)[C@@H](C)[C@H](OC)c2ncc(C)cn2)nnc1-c1cc(C(F)(F)F)cc(C(F)(F)F)c1` [Example 68.0, (1R,2S)-N-(5-(3,5-bis(trifluoromethyl)phenyl)-4-(2,6-dimethoxyphenyl)-4H-1,2,4-triazol-3-yl)-1-methoxy-1-(5-methyl-2-pyrimidinyl)-2-propanesulfonamide] reads 4.7 nM; that for `Cc1cnc([C@@H](C)[C@H](C)S(=O)(=O)Nc2nnc(-c3ccccc3)n2-c2c(F)cccc2F)nc1` [Example 40.0, (2S,3R)-N-(4-(2,6-difluorophenyl)-5-phenyl-4H-1,2,4-triazol-3-yl)-3-(5-methyl-2-pyrimidinyl)-2-butanesulfonamide], 4.4 nM.
The result for `Cc1cnc([C@H](OC(C)C)[C@H](C)S(=O)(=O)Nc2nnc(-c3ccccc3)n2-c2c(F)cccc2F)nc1` [Example 42.0, (1S,2S)-N-(4-(2,6-difluorophenyl)-5-phenyl-4H-1,2,4-triazol-3-yl)-1-(1-methylethoxy)-1-(5-methyl-2-pyrimidinyl)-2-propanesulfonamide] reads 3.4 nM; that for `COc1ncnc(OC)c1-n1c(NS(=O)(=O)[C@H]2CCCN(c3ncc(C)cn3)C2)nnc1-c1ccccc1` (single isomer, unassigned) [Example 29.0, (S)—N-(4-(4,6-Dimethoxypyrimidin-5-yl)-5-phenyl-4H-1,2,4-triazol-3-yl)-1-(5-methylpyrimidin-2-yl)piperidine-3-sulfonamide or (R)—N-(4-(4,6-dimethoxypyrimidin-5-yl)-5-phenyl-4H-1,2,4-triazol-3-yl)-1-(5-methylpyrimidin-2-yl)piperidine-3-sulfonamide], 390 nM; that for `COc1ncnc(OC)c1-n1c(NS(=O)(=O)[C@@H](C)[C@H](OC)c2ncc(C)cn2)nnc1-c1cccc2cn(C)nc12` [Example 93.0], 41 nM.
The result for `COc1cccc(OC)c1-n1c(NS(=O)(=O)[C@@H](C)[C@H](OC)c2ncc(C)cn2)nnc1-c1cccc(S(=O)(=O)N(C)C)c1` [Example 73.0, 3-(4-(2,6-dimethoxyphenyl)-5-((((1S,2R)-2-methoxy-1-methyl-2-(5-methyl-2-pyrimidinyl)ethyl)sulfonyl)amino)-4H-1,2,4-triazol-3-yl)-N,N-dimethylbenzenesulfonamide] reads 31 nM; that for `COc1cccc(OC)c1-n1c(NS(=O)(=O)CCc2ccc(F)cc2C#N)nnc1-c1ccccc1` [Example 12.0, 2-(2-cyano-4-fluorophenyl)-N-(4-(2,6-dimethoxyphenyl)-5-phenyl-4H-1,2,4-triazol-3-yl)ethanesulfonamide], 8.5 nM; that for `COc1cccc(OC)c1-n1c(NS(=O)(=O)[C@@H](C)[C@H](OC)c2ncc(C)cn2)nnc1-c1cccc(Br)c1` [Example 81.0, (1R,2S)-N-(5-(3-bromophenyl)-4-(2,6-dimethoxyphenyl)-4H-1,2,4-triazol-3-yl)-1-methoxy-1-(5-methyl-2-pyrimidinyl)-2-propanesulfonamide], 0.27 nM.
With `COc1ccc(OC)c(-c2nnc(NS(=O)(=O)[C@@H](C)[C@H](OC)c3ncc(C)cn3)n2-c2c(OC)cccc2OC)c1` [Example 79.0, (1R,2S)-N-(5-(2,5-dimethoxyphenyl)-4-(2,6-dimethoxyphenyl)-4H-1,2,4-triazol-3-yl)-1-methoxy-1-(5-methyl-2-pyrimidinyl)-2-propanesulfonamide], the EC50 worked out at 3.8 nM.
The result for `CO[C@H](c1ncc(Cl)cn1)[C@H](C)S(=O)(=O)Nc1nnc(-c2cccc(OC(F)F)c2)n1C1CC1` [Example 122.0, (1R,2S)-1-(5-Chloropyrimidin-2-yl)-N-(4-cyclopropyl-5-(3-(difluoromethoxy)phenyl)-4H-1,2,4-triazol-3-yl)-1-methoxypropane-2-sulfonamide] reads 250 nM; that for `COc1cccc(OC)c1-n1c(NS(=O)(=O)[C@@H](C)[C@H](OC)c2ncc(C)cn2)nnc1-c1ccc(OC(F)(F)F)cc1` [Example 69.0, (1R,2S)-N-(4-(2,6-dimethoxyphenyl)-5-(4-(trifluoromethoxy)phenyl)-4H-1,2,4-triazol-3-yl)-1-methoxy-1-(5-methyl-2-pyrimidinyl)-2-propanesulfonamide], 35 nM.
The result for `COc1cccc(OC)c1-n1c(NS(=O)(=O)[C@@H](C)[C@H](OC)c2ncc(C)cn2)nnc1-c1cccc(C#N)c1` [Example 86.0, (1R,2S)-N-(5-(3-cyanophenyl)-4-(2,6-dimethoxyphenyl)-4H-1,2,4-triazol-3-yl)-1-methoxy-1-(5-methyl-2-pyrimidinyl)-2-propanesulfonamide] reads 10.6 nM; that for `COc1ncnc(OC)c1-n1c(NS(=O)(=O)CCc2ccc(F)cc2C#N)nnc1-c1ccccc1` [Example 10.0, 2-(2-cyano-4-fluorophenyl)-N-(4-(4,6-dimethoxy-5-pyrimidinyl)-5-phenyl-4H-1,2,4-triazol-3-yl)ethanesulfonamide], 42 nM.
With `COc1ncnc(OC)c1-n1c(NS(=O)(=O)[C@@H](C)[C@H](C)c2ncc(C)cn2)nnc1-c1cccc(C#N)c1` [Example 50.0, (2S,3R)-N-(5-(3-cyanophenyl)-4-(4,6-dimethoxy-5-pyrimidinyl)-4H-1,2,4-triazol-3-yl)-3-(5-methyl-2-pyrimidinyl)-2-butanesulfonamide], the EC50 was found to be 110 nM.
Regarding `Cc1cnc([C@H](OC(C)C)[C@H](C)S(=O)(=O)Nc2nnc(-c3ccccc3)n2C2(C)CC2)nc1` [Example 99.0], the 50% effective concentration (EC50) was 8 nM.
